Experiments:
Leishmania donovani = test: Antileishmanial activity against Leishmania donovani MHOM/ET/67/L82 axenic amastigotes after 72 hrs by alamar blue staining based fluorescence assay; type: functional, organism-based; conditions: MHOM/ET/67/L82, 72 h
[1] = Selectivity index, ratio of IC50 for rat L6 cells to IC50 for Leishmania donovani MHOM/ET/67/L82 axenic amastigotes; type: toxicity; conditions: read-out: Ratio IC50
[2] = test system: Trypanosoma brucei rhodesiense; test: Antiprotozoal activity against trypomastigote stage of Trypanosoma brucei rhodesiense STIB900 after 72 hrs by Alamar Blue assay; type: functional, organism-based; conditions: STIB900, 72 h
[3] = Selectivity index, ratio of IC50 for rat L6 cells to IC50 for trypomastigote stage of Trypanosoma brucei rhodesiense STIB900; type: toxicity; conditions: read-out: Ratio IC50
Trypanosoma cruzi = test: Antitrypanosomal activity against Trypanosoma cruzi Tulahuen C4 amastigotes harboring LacZ infected in rat L6 cells after 96 hrs by CPRG/Nonidet reagent based photometric analysis; type: functional, organism-based; conditions: Tulahuen C4, L6, 96 h
[4] = Selectivity index, ratio of IC50 for rat L6 cells to IC50 for IEF stage of Plasmodium falciparum NF54; type: toxicity; conditions: read-out: Ratio IC50
[5] = Selectivity index, ratio of IC50 for rat L6 cells to IC50 for Trypanosoma cruzi Tulahuen C4 amastigotes harboring LacZ infected in rat L6 cells; type: toxicity, cell-based; conditions: read-out: Ratio IC50
L6 = test: Cytotoxicity against rat L6 cells after 72 hrs by alamar blue assay; type: cell-based; conditions: L6, 72 h
Plasmodium falciparum = test: microbe, parasite or virus in culture; conditions: NF54
Description: Antiplasmodial activity against IEF stage of Plasmodium falciparum NF54 assessed as reduction in [3H]hypoxanthine incorporation preincubated for 48 hrs followed by [3H]hypoxanthine addition measured after 24 hrs by liquid scintillation counting method

| SMILES | IC50 (Leishmania donovani) [µM] | selectivity ratio [1] | IC50 [2] [µM] | selectivity ratio [3] | IC50 (Trypanosoma cruzi) [µM] | selectivity ratio [4] | selectivity ratio [5] | IC50 (L6) [µM] | IC50 (Plasmodium falciparum) [µM] |
| --- | --- | --- | --- | --- | --- | --- | --- | --- | --- |
| CC1=C2C[C@@H]3C(C)(C)O[C@]45O[C@@]4(C(C)C)C(=O)[C@]4(CC[C@H]6C(C)(C)CCC[C@]67C[C@]24[C@]35O7)CC1=O | 12.3 | 5.9 | 30.5 | 2.4 | 11.5 | 56.9 | 6.3 | 72.2 | 1.3 |
| CC1=C2[C@H](O)[C@@H]3C(C)(C)OC4=C(C(C)C)C(=O)[C@]5(CC[C@H]6C(C)(C)CCC[C@]67C[C@]25[C@@]43O7)CC1=O | 7.5 | 1.8 | 45.3 | 0.3 | 3.8 | 1.8 | 3.6 | 13.6 | 7.5 |
| CC(C)=C[C@H]1[C@@H]2C(C)=CC[C@]34CC[C@H]5C(C)(C)CCC[C@]56C[C@]23[C@@](O)(O6)C(=O)[C@]1(C(C)C)C4=O | 21.3 | 2.2 | 66.9 | 0.7 | 35.8 | 44.2 | 1.3 | 47.2 | 1.1 |
| O=C(Cn1ccnc1[N+](=O)[O-])NCc1ccccc1 [BENZNIDAZOLE] |  |  |  |  | 5.1 |  |  |  |  |
| Nc1nc(N)nc(Nc2ccc([As]3SCC(CO)S3)cc2)n1 (configuration not stated) [MELARSOPROL] |  |  | 0.04 |  |  |  |  |  |  |
| CCCCCCCCCCCCCCCCOP(=O)([O-])OCC[N+](C)(C)C [MILTEFOSINE] | 0.9 |  |  |  |  |  |  |  |  |
| C=CC1=C[C@@H]2[C@H]3C(C)=CO[C@]45O[C@]67CCCC(C)(C)[C@@H]6CC[C@](C1)(C(=O)[C@]3(C(C)C)C4=O)[C@]25C7 | 15.6 | 2.7 | 24.6 | 1.7 | 47.9 | 22 | 0.9 | 41.6 | 1.9 |
| C[C@@H]1CC[C@H]2[C@@H](C)C(=O)O[C@@H]3O[C@@]4(C)CC[C@@H]1[C@]32OO4 [ARTEMISININ] |  |  |  |  |  |  |  |  | 0.008 |
| CC(C)C1=C2OC(C)(C)[C@H]3C[C@@]45O[C@]4(C)[C@H](O)C[C@@]4(CC[C@H]6C(C)(C)CCC[C@]67C[C@@]45[C@@]23O7)C1=O | 44.1 | 1.1 | 74.6 | 0.6 | 19.8 | 12.9 | 2.4 | 46.9 | 3.6 |
| CC1=C2C[C@@H]3C(C)(C)OC4=C(C(C)C)C(=O)[C@]5(CC[C@H]6C(C)(C)CCC[C@]67C[C@]25[C@@]43O7)CC1=O | 15.5 | 2.4 | 56 | 0.7 | 3.5 | 62.2 | 10.7 | 37.2 | 0.6 |
| CC(=O)[C@@]12C[C@H]3C(C)(C)OC4=C(C(C)C)C(=O)[C@]5(CC[C@H]6C(C)(C)CCC[C@]67C[C@@]51[C@@]43O7)C[C@H]2O | 12.3 | 3.3 | 85.8 | 0.5 | 33.9 | 5.2 | 1.2 | 41.1 | 7.9 |
